Measurements from ChEMBL document CHEMBL3045332, “Synthesis of some new 2,6-disubstituted-3(2H)-pyridazinone derivatives and investigation of their analgesic, anti-inflammatory and antimicrobial activities” (Med Chem Res, 2013).
In brackets after ≈: the same amount, converted by molar mass.

How the values were obtained:
[1] = test system: Staphylococcus aureus; assay: Antibacterial activity against methicillin-resistant Staphylococcus aureus clinical isolate after 24 hr by two-fold serial dilution method; format: functional
[2] = test system: Staphylococcus aureus; assay: Antibacterial activity against Staphylococcus aureus ATCC 29213 after 24 hr by two-fold serial dilution method; format: functional; details: ATCC 29213, 24 h
[3] = test system: Mus musculus; assay: Anti-inflammatory activity in Swiss albino Mus musculus (mouse) assessed as inhibition of carrageenan-induced paw edema at 100 mg/kg, po administered 60 min prior to crrageenan-challenge measured at 360 min relative to control; format: functional
[4] = test system: Pseudomonas aeruginosa; assay: Antibacterial activity against Pseudomonas aeruginosa ATCC 27853 after 24 hr by two-fold serial dilution method; format: functional; details: ATCC 27853, 24 h
[5] = test system: Mus musculus; assay: Ulcerogenic activity in p-benzoquinone-challenged Swiss albino Mus musculus (mouse) at 100 mg/kg, po administered 60 min prior to p-benzoquinone-challenge by microscopic analysis; format: toxicity, organism-based; design: dose 100 mg/kg, route oral; details: in vivo, 1 h
[6] = test system: Enterococcus faecalis; assay: Antibacterial activity against Enterococcus faecalis clinical isolate after 24 hr by two-fold serial dilution method; format: functional
[7] = test system: Escherichia coli; assay: Antibacterial activity against Escherichia coli ATCC 25922 after 24 hr by two-fold serial dilution method; format: functional; details: ATCC 25922, 24 h
[8] = test system: Escherichia coli; assay: Antibacterial activity against Escherichia coli clinical isolate expressing extended spectrum beta-lactamase after 24 hr by two-fold serial dilution method; format: functional
[9] = test system: Pichia kudriavzevii; assay: Antifungal activity against Pichia kudriavzevii ATCC 6258 after 48 hr by two-fold serial dilution method; format: functional; details: ATCC 6258, 48 h
[10] = test system: Pseudomonas aeruginosa; assay: Antibacterial activity against Pseudomonas aeruginosa cloinical isolate after 24 hr by two-fold serial dilution method; format: functional
[11] = test system: Mus musculus; assay: Analgesic activity in Swiss albino Mus musculus (mouse) assessed as inhibition of p-benzoquinone-induced writhing at 100 mg/kg, po administered 60 min prior to p-benzoquinone-challenge measured up to 15 min relative to control; format: functional
[12] = test system: Candida albicans; assay: Antifungal activity against Candida albicans ATCC 10231 after 48 hr by two-fold serial dilution method; format: functional; details: ATCC 10231, 48 h
[13] = test system: Mus musculus; assay: Anti-inflammatory activity in Swiss albino Mus musculus (mouse) assessed as inhibition of carrageenan-induced paw edema at 100 mg/kg, po administered 60 min prior to crrageenan-challenge measured at 270 min relative to control; format: functional
[14] = test system: Enterococcus faecalis; assay: Antibacterial activity against Enterococcus faecalis ATCC 29212 after 24 hr by two-fold serial dilution method; format: functional; details: ATCC 29212, 24 h
[15] = test system: Mus musculus; assay: Anti-inflammatory activity in Swiss albino Mus musculus (mouse) assessed as inhibition of carrageenan-induced paw edema at 100 mg/kg, po administered 60 min prior to crrageenan-challenge measured at 180 min relative to control; format: functional
[16] = test system: Mus musculus; assay: Anti-inflammatory activity in Swiss albino Mus musculus (mouse) assessed as inhibition of carrageenan-induced paw edema at 100 mg/kg, po administered 60 min prior to crrageenan-challenge measured at 90 min relative to control; format: functional

Row | SMILES | MIC [1] | MIC [2] | inhibition in vivo at 100 mg/kg [3] | MIC [4] | Activity [5] | MIC [6] | MIC [7] | MIC [8] | MIC [9] | MIC [10] | inhibition in vivo at 100 mg/kg [11] | MIC [12] | inhibition in vivo at 100 mg/kg [13] | MIC [14] | inhibition in vivo at 100 mg/kg [15] | inhibition in vivo at 100 mg/kg [16]
1 | O=c1ccc(-c2ccccc2)nn1CCN1CCN(c2ccccc2)CC1 | 128 µg/mL (≈ 355 µM) | 64 µg/mL (≈ 178 µM) | 3.1% | 64 µg/mL (≈ 178 µM) | Non-toxic | 64 µg/mL (≈ 178 µM) | 64 µg/mL (≈ 178 µM) | 64 µg/mL (≈ 178 µM) | 32 µg/mL (≈ 88.8 µM) | 64 µg/mL (≈ 178 µM) | 10.7% | 32 µg/mL (≈ 88.8 µM) | 6.4% | 64 µg/mL (≈ 178 µM) | – | –
2 | O=c1ccc(-c2ccccc2)nn1CCN1CCN(c2ccc(Cl)cc2)CC1 | 128 µg/mL (≈ 324 µM) | 64 µg/mL (≈ 162 µM) | 12.1% | 64 µg/mL (≈ 162 µM) | Non-toxic | 64 µg/mL (≈ 162 µM) | 64 µg/mL (≈ 162 µM) | 64 µg/mL (≈ 162 µM) | 32 µg/mL (≈ 81 µM) | 64 µg/mL (≈ 162 µM) | 23.3% | 32 µg/mL (≈ 81 µM) | 14.8% | 64 µg/mL (≈ 162 µM) | 14.9% | 16.2%
3 | O=c1ccc(-c2ccccc2)nn1CCN1CCN(c2ccc(F)cc2)CC1 | 128 µg/mL (≈ 338 µM) | 64 µg/mL (≈ 169 µM) | 19.5% | 64 µg/mL (≈ 169 µM) | Non-toxic | 64 µg/mL (≈ 169 µM) | 64 µg/mL (≈ 169 µM) | 64 µg/mL (≈ 169 µM) | 32 µg/mL (≈ 84.6 µM) | 64 µg/mL (≈ 169 µM) | 16.8% | 32 µg/mL (≈ 84.6 µM) | 29.9% | 64 µg/mL (≈ 169 µM) | 26.3% | 10.6%
4 | COc1ccc(N2CCN(CCn3nc(-c4ccccc4)ccc3=O)CC2)cc1 | 128 µg/mL (≈ 328 µM) | 64 µg/mL (≈ 164 µM) | – | 64 µg/mL (≈ 164 µM) | Non-toxic | 64 µg/mL (≈ 164 µM) | 64 µg/mL (≈ 164 µM) | 64 µg/mL (≈ 164 µM) | 32 µg/mL (≈ 81.9 µM) | 64 µg/mL (≈ 164 µM) | 8.6% | 32 µg/mL (≈ 81.9 µM) | – | 64 µg/mL (≈ 164 µM) | – | –
5 | COc1ccc(-c2ccc(=O)n(CCN3CCN(c4ccccc4)CC3)n2)cc1 | 128 µg/mL (≈ 328 µM) | 64 µg/mL (≈ 164 µM) | – | 64 µg/mL (≈ 164 µM) | Non-toxic | 64 µg/mL (≈ 164 µM) | 64 µg/mL (≈ 164 µM) | 64 µg/mL (≈ 164 µM) | 32 µg/mL (≈ 81.9 µM) | 64 µg/mL (≈ 164 µM) | 18.4% | 32 µg/mL (≈ 81.9 µM) | – | 64 µg/mL (≈ 164 µM) | 12.6% | 11.9%
6 | COc1ccc(-c2ccc(=O)n(CCN3CCN(c4ccc(Cl)cc4)CC3)n2)cc1 | 128 µg/mL (≈ 301 µM) | 64 µg/mL (≈ 151 µM) | 26.2% | 64 µg/mL (≈ 151 µM) | Toxic | 64 µg/mL (≈ 151 µM) | 64 µg/mL (≈ 151 µM) | 64 µg/mL (≈ 151 µM) | 32 µg/mL (≈ 75.3 µM) | 64 µg/mL (≈ 151 µM) | 44.4% | 32 µg/mL (≈ 75.3 µM) | 27.5% | 64 µg/mL (≈ 151 µM) | 19.8% | 16.9%
7 | COc1ccc(-c2ccc(=O)n(CCN3CCN(c4ccc(F)cc4)CC3)n2)cc1 | 128 µg/mL (≈ 313 µM) | 64 µg/mL (≈ 157 µM) | 18.3% | 64 µg/mL (≈ 157 µM) | Toxic | 64 µg/mL (≈ 157 µM) | 64 µg/mL (≈ 157 µM) | 64 µg/mL (≈ 157 µM) | 32 µg/mL (≈ 78.3 µM) | 64 µg/mL (≈ 157 µM) | 47.6% | 32 µg/mL (≈ 78.3 µM) | 22.9% | 64 µg/mL (≈ 157 µM) | 15.5% | 16.2%
8 | COc1ccc(-c2ccc(=O)n(CCN3CCN(c4ccc(OC)cc4)CC3)n2)cc1 | 128 µg/mL (≈ 304 µM) | 64 µg/mL (≈ 152 µM) | 7.9% | 64 µg/mL (≈ 152 µM) | Non-toxic | 64 µg/mL (≈ 152 µM) | 64 µg/mL (≈ 152 µM) | 64 µg/mL (≈ 152 µM) | 32 µg/mL (≈ 76.1 µM) | 64 µg/mL (≈ 152 µM) | 5.6% | 32 µg/mL (≈ 76.1 µM) | 13.6% | 64 µg/mL (≈ 152 µM) | – | –
9 | O=c1ccc(-c2ccc(Cl)cc2)nn1CCN1CCN(c2ccccc2)CC1 | 128 µg/mL (≈ 324 µM) | 64 µg/mL (≈ 162 µM) | – | 64 µg/mL (≈ 162 µM) | Non-toxic | 64 µg/mL (≈ 162 µM) | 64 µg/mL (≈ 162 µM) | 64 µg/mL (≈ 162 µM) | 32 µg/mL (≈ 81 µM) | 64 µg/mL (≈ 162 µM) | 20.1% | 32 µg/mL (≈ 81 µM) | 7.4% | 64 µg/mL (≈ 162 µM) | 1.4% | –
